According to patent publication US20020128268A1, “Use of 2-hydrazino-1,3-thiazoles as antioxidants” (priority 2000, published 2002):

Columns and labels:
[1] = DPPH (1,1-diphenyl-2-picryl-hydrazyl) test for eliminating free radicals; format: biochemical; conditions: effective relative concentration c(test compound)/c(DPPH) at which the DPPH free radical was 50% eliminated; methanol, absorption at 515 nm
Method: The activity of the exemplary compounds as free radical-capturing agents was compared with that of conventional free radical-capturing agents. In this connection, use was made of the DPPH (1,1-diphenyl-2-picryl-hydrazyl) test for eliminating free radicals.
DPPH was dissolved in methanol to give a concentration of 100 μmol/l. A series of dilutions of the exemplary compounds, Vitamin C, α-tocopherol and dibutylhydroxytoluene were prepared in methanol. Methanol served as the control. 2500 μl of the DPPH solution were mixed with 500 μl of each test solution and the decrease in the absorption at 515 nm was read until the decrease was less than 2% per hour. The activity of the test substances as free radical-capturing agents was calculated using the following equation:
Activity as free radical-capturing agent (%)=100—(absorption of the test compounds)/(absorption of the control)×100.
For each test compound, the effective relative concentration EC50 (based on the concentration of DPPH which was initially present, EC=c (test compound)/c(DPPH)) of a test compound, i.e. at which the DPPH free radical was 50% eliminated, was calculated from the activity as a free radical-capturing agent (%) in a series of dilutions of test compounds.

[2] = Rancimat accelerated autooxidation of lipids by air, squalene; conditions: antioxidative index = IP(with test solution)/IP(control sample), squalene purified on alumina type N and stabilized with 1 ppm α-tocopherol
Method: (§1) The activity of the exemplary compounds as antioxidants was compared with that of conventional antioxidants. The accelerated autooxidation of lipids by air with or without antioxidant, as measured using the Rancimat appliance (Rancimat is a registered trademark belonging to Metrohm AG, Herisau, Switzerland) was used as the test system. The exemplary compounds, Vitamin C, α-tocopherol and dibutyihydroxytoluene were dissolved in methanol or acetone, and 100 μl of the respective test solution were added to a previously prepared oil sample weighing 3 g. Solvent only was added to a control sample. A constant, dry stream of air (20 I/h) was blown through the heated oil sample containing the test solution, and the volatile oxidation products (principally short-chain fatty acids such as formic and acetic acid) were collected in a recipient vessel containing water. The conductivity of this aqueous solution was measured and documented continuously. In this connection, the oxidation of (unsaturated) fats proceeds only very slowly for a while and then suddenly increases rapidly. The time which elapses until the increase is termed the induction period (IP). The antioxidative index (AOI) was obtained using the following equation: AOI=IP(with test solution)/IP(control sample). The results for the experiments in soyabean oil at 100° C. and, at 80° C., in squalene, which was purified on alumina type N and stabilized with 1 ppm α-tocopherol, are shown in Table 6: […]

[3] = Rancimat accelerated autooxidation of lipids by air, soyabean oil; conditions: antioxidative index = IP(with test solution)/IP(control sample)
Method: as §1

Structure (SMILES): NNc1nc2ccccc2s1 [2-Hydrazino-1,3-benzothiazole]
- EC50/ (mol/mol) [1]: 0.15 mol/mol
- AOl in squalene at 80° C. containing 0.005% test substance [2]: 97
- AOl in Soyabean oil at 100° C. containing 0.05% test substance [3]: 17

Structure (SMILES): Cc1cc(C(C)(C)C)c(O)c(C(C)(C)C)c1 [Dibutylhydroxytoluene, reference compound]
- EC50/ (mol/mol) [1]: 0.24 mol/mol
- AOl in squalene at 80° C. containing 0.005% test substance [2]: 38
- AOl in Soyabean oil at 100° C. containing 0.05% test substance [3]: 4.8

Structure (SMILES): NNc1nnc(-c2ccc(F)cc2)s1 [2-Hydrazino-5-(4-fluorophenyl)-1,3,4-thiadiazole]
- EC50/ (mol/mol) [1]: 0.14 mol/mol
- AOl in squalene at 80° C. containing 0.005% test substance [2]: 38
- AOl in Soyabean oil at 100° C. containing 0.05% test substance [3]: 15

Structure (SMILES): CC(C)(C)c1ccc2nc(NN)sc2c1 [6-tert.-Butyl-2-hydrazino-1,3-benzothiazole]
- EC50/ (mol/mol) [1]: 0.15 mol/mol
- AOl in squalene at 80° C. containing 0.005% test substance [2]: 14
- AOl in Soyabean oil at 100° C. containing 0.05% test substance [3]: 6

Structure (SMILES): O=C1O[C@H]([C@@H](O)CO)C(O)=C1O [Vitamin C, reference compound]
- EC50/ (mol/mol) [1]: 0.27 mol/mol
- AOl in squalene at 80° C. containing 0.005% test substance [2]: 0.7
- AOl in Soyabean oil at 100° C. containing 0.05% test substance [3]: 1.2

Structure (SMILES): NNc1nc2cccnc2s1 [2-Hydrazino-thiazolo-[5,4-b]pyridine]
- EC50/ (mol/mol) [1]: 0.10 mol/mol
- AOl in squalene at 80° C. containing 0.005% test substance [2]: 60

Structure (SMILES): NNc1nc2cc(S(=O)(=O)O)ccc2s1 [2-Hydrazino-1,3-benzothiazole-5-sulfonic acid]
- EC50/ (mol/mol) [1]: 0.17 mol/mol

Structure (SMILES): Cc1ccc2nc(NN)sc2c1 [6-Methyl-2-hydrazino-1,3-benzothiazole]
- EC50/ (mol/mol) [1]: 0.28 mol/mol
- AOl in squalene at 80° C. containing 0.005% test substance [2]: 67
- AOl in Soyabean oil at 100° C. containing 0.05% test substance [3]: 2.4

Structure (SMILES): Cc1c(C)c2c(c(C)c1O)CC[C@@](C)(CCC[C@H](C)CCC[C@H](C)CCCC(C)C)O2 [α-Tocopherol, reference compound]
- EC50/ (mol/mol) [1]: 0.25 mol/mol
- AOl in squalene at 80° C. containing 0.005% test substance [2]: 39
- AOl in Soyabean oil at 100° C. containing 0.05% test substance [3]: 5.1

Structure (SMILES): NNc1nc(-c2ccccc2)cs1 [2-Hydrazino-4-phenyl-1,3-thiazole]
- EC50/ (mol/mol) [1]: 0.13 mol/mol
- AOl in squalene at 80° C. containing 0.005% test substance [2]: 13
- AOl in Soyabean oil at 100° C. containing 0.05% test substance [3]: 8.5

Structure (SMILES): COc1ccc2nc(NN)sc2c1 [6-Methoxy-2-hydrazino-1,3-benzothiazole]
- AOl in squalene at 80° C. containing 0.005% test substance [2]: 23
- AOl in Soyabean oil at 100° C. containing 0.05% test substance [3]: 24

Structure (SMILES): COc1cc2nc(NN)sc2cc1OC [5,6-Dimethoxy-2-hydrazino-1,3-benzothiazole]
- EC50/ (mol/mol) [1]: 0.12 mol/mol
- AOl in squalene at 80° C. containing 0.005% test substance [2]: 24
- AOl in Soyabean oil at 100° C. containing 0.05% test substance [3]: 4.1
